The values below come from patent US12576083B2, “Combinational therapy of LSD1 inhibitors with P21 activators in the treatment of cancer” (Istituto Europeo di Oncologia S.r.l., priority 2017, dated 2026).

This assay relates to p21. The experiment in a line: p21 expression in NB4 cells treated with HDAC inhibitors. The class given is cell-based. The settings on record: with p21-shRNA or scramble shRNA. How it is done:
FIGS. 9A-9C. […] (FIG. 9B) NB4 cells were infected with SCR (control) or P21 shRNA, and knockdown was monitored by qPCR. Values are normalized against GAPDH. (FIG. 9C) Monitoring of p21 expression upon the indicated treatments. (SCR=Scramble shRNA, NI=Not Infected, HDACi=HDAC inhibitor=SAHA or TSA).
NB4 cells were treated with HDAC inhibitors, trichostatin A (TSA) and suberoylanilide hydroxamic acid (SAHA), in combination with p21-shRNA or scramble shRNA (SCR). NB4 cells with p21 knock-down without HDAC inhibitor treatment (p21KD-DMSO), NB4 cells without p21 knock-down and without HDAC inhibitor treatment (Scr-DMSO), untreated UF1 cells (UF1-DMSO) were included as control.

For `CC(/C=C/C(=O)NO)=C\[C@@H](C)C(=O)c1ccc(N(C)C)cc1` [TSA, trichostatin A], the “p21 expression in NB4 cells” value was “induced p21 expression”.

With `O=C(CCCCCCC(=O)Nc1ccccc1)NO` [SAHA, suberoylanilide hydroxamic acid], the “p21 expression in NB4 cells” value is on record as “induced p21 expression”.
